# Reference: US11358952B2, “Substituted 4-aminoisoindoline-1,3-dione compounds, compositions thereof, and methods of treatment therewith” (Celgene Corporation, priority 2018, dated 2022)
# Test system: SU-DHL-4 cell line
# Experiment: SU-DHL-4 cell proliferation assay (Cell Titer-Glo viability)
# Format: cell-based
# Conditions: Homo sapiens; cell viability IC50 activity level, DLBCL cell line SU-DHL-4, 120 hours post-treatment; read-out: SU-DHL-4 Act
# Protocol: SU-DHL-4 Cell Proliferation Assay.
# The following is an example of an assay that can be used to determine the anti-proliferative activity of Isoindolinedione Compounds in a DLBCL cell line, for example, the SU-DHL-4 cell line (Deutsche Sammlung von Mikroorganismen and Zellkulturen GmbH [DSMZ]: catalogue number ACC-495) at 120 hours post-treatment. The seeding density for SU-DHL-4 can be optimized to ensure assay linearity in 1536-well plates.
# Increasing concentrations of test compounds (0.5 nM to 10 μM) were spotted in a 20-point dilution fashion (unevenly spaced data points) via an acoustic dispenser (EDC ATS-100) into an empty 1536-well plate. The DMSO concentration was kept constant for a final assay concentration of 0.1% DMSO. Prior to testing, SU-DHL-4 cells were grown in RPMI-1640 (Roswell Park Memorial Institute—1640) medium with 10% FBS (fetal bovine serum: HyClone) and expanded in culture flasks to provide sufficient amounts of starting material. Cells were then diluted to 500 cells per well in a 5 μL volume, and added directly to the compound-spotted 1536-well plates. Cells were allowed to grow for 120 hours in 5% CO2 at 37° C. At the time when exposure of cells to compound began (to), initial viable cell number was assessed via Cell Titer-Glo® Luminescent Cell Viability Assay at a 1 vol:2 vol ratio according to manufacturer's instructions (Promega Corporation, Madison, Wis.) by quantifying the level of luminescence generated by adenosine-5′-triphosphate (ATP) present in viable cells. After 120 hours, cell viability of the treated cells was assessed via Cell Titer-Gb® and read for luminescence. All growth inhibition curves were processed and evaluated using Activity Base (IDBS, Alameda, Calif.). Cell viability IC50 values were calculated using a four parameter logistic model (sigmoidal dose-response model): y=(A+((B−A)/(1+((C/x)^D)))) wherein: A=YMin B=YMax C=EC50 D=Hill slope IC50=the concentration of the compound when Y=50% of DMSO control Y=cell viability measured as luminescence unit, and x=concentration of compound.
row,IC50 [nM],Structure (SMILES)
1,200 to 500,"O=C1CCC(N2C(=O)c3cccc(NCc4ccc(CN5CCOCC5)cc4F)c3C2=O)C(=O)N1 (stereo not drawn) [Cpd 154, 2-(2,6-dioxopiperidin-3-yl)-4-(2-fluoro-4-(morpholinomethyl)benzylamino) isoindoline-1,3-dione]"
2,751 to 1000,"Cc1cc(CNc2cccc3c2C(=O)N(C2CCC(=O)NC2=O)C3=O)ccc1CN1CCN(c2cccnc2C(N)=O)CC1 (stereo not drawn) [Cpd 179, 3-(4-(4-((2-(2,6-dioxopiperidin-3-yl)-1,3-dioxoisoindolin-4-ylamino)methyl)-2-methylbenzyl)piperazin-1-yl)picolinamide]"
3,200 to 500,"O=C1CCC(N2C(=O)c3cccc(NCc4ccc(CN5CC6(CC6)C5)cc4F)c3C2=O)C(=O)N1 (stereo not drawn) [Cpd 135, 4-(4-(5-azaspiro[2.3]hexan-5-ylmethyl)-2-fluorobenzylamino)-2-(2,6-dioxopiperidin-3-yl)isoindoline-1,3-dione]"
4,< 200,"CC1(C)CN(C2CN(Cc3ccc(CNc4cccc5c4C(=O)N(C4CCC(=O)NC4=O)C5=O)c(F)c3)C2)CCO1 (stereo not drawn) [Cpd 245, 4-(4-((3-(2,2-dimethylmorpholino)azetidin-1-yl)methyl)-2-fluorobenzylamino)-2-(2,6-dioxopiperidin-3-yl)isoindoline-1,3-dione]"
5,< 200,"O=C1CCC(N2C(=O)c3cccc(NCc4ccc(CN5CCC(C6CCOCC6)CC5)cc4)c3C2=O)C(=O)N1 (stereo not drawn) [Cpd 213, 2-(2,6-dioxopiperidin-3-yl)-4-(4-((4-(tetrahydro-2H-pyran-4-yl)piperridin-1-yl)methyl)benzylamino)isoindoline-1,3-dione]"
6,501 to 750,"Cc1cc(CNc2cccc3c2C(=O)N(C2CCC(=O)NC2=O)C3=O)ccc1CN1CCC2(COC2)C1 (stereo not drawn) [Cpd 229, 4-(4-(2-oxa-6-azaspiro[3.4]octan-6-ylmethyl)-3-methylbenzylamino)-2-(2,6-dioxopiperidin-3-yl)isoindoline-1,3-dione]"
7,501 to 750,"CC1(C)CN(C2CN(Cc3ccc(CNc4cccc5c4C(=O)N(C4CCC(=O)NC4=O)C5=O)cc3)C2)CCO1 (stereo not drawn) [Cpd 235, 4-(4-((3-(2,2-dimethylmorpholino)azetidin-1-yl)methyl)benzylamino)-2-(2,6-dioxopiperidin-3-yl)isoindoline-1,3-dione]"
8,< 200,"O=C1CCC(N2C(=O)c3cccc(NCc4ccc(CN5CCC(N6CCCS6(=O)=O)CC5)cc4F)c3C2=O)C(=O)N1 (stereo not drawn) [Cpd 172, 4-((4-((4-(1,1-dioxidoisothiazolidin-2-yl)piperidin-1-yl)methyl)-2-fluorobenzyl)amino)-2-(2,6-dioxopiperidin-3-yl)isoindoline-1,3-dione]"
9,< 200,"CC(C)(C)OC1CCN(Cc2ccc(CNc3cccc4c3C(=O)N(C3CCC(=O)NC3=O)C4=O)c(F)c2)CC1 (stereo not drawn) [Cpd 143, 4-(4-((4-tert-butyoxypiperidin-1-yl)methyl)-2-fluorobenzylamino)-2-(2,6-dioxopiperidin-3-yl)isoindoline-1,3-dione]"
10,< 200,"CC(C)(C)C1CN(Cc2ccc(CNc3cccc4c3C(=O)N(C3CCC(=O)NC3=O)C4=O)c(F)c2)C1 (stereo not drawn) [Cpd 134, 4-(4-((3-tert-butylazetidin-1-yl)methyl)-2-fluorobenzylamino)-2-(2,6-dioxopiperidin-3-yl)isoindoline-1,3-dione]"
11,751 to 1000,"O=C1CCC(N2C(=O)c3cccc(NCc4ccc(CN5CCC(Oc6ccccn6)CC5)cc4)c3C2=O)C(=O)N1 (stereo not drawn) [Cpd 132, 2-(2,6-dioxopiperidin-3-yl)-4-(4-((4-(pyridin-2-yloxy)piperidin-1-yl)methyl)benzylamino)isoindoline-1,3-dione]"

# More lines, now with the values behind:
row,Structure (SMILES),IC50 [nM]
1,"O=C1CCC(N2C(=O)c3cccc(NCc4ccc(CN5CCN(c6ccc(Cl)cc6Cl)CC5)cc4)c3C2=O)C(=O)N1 (stereo not drawn) [Cpd 4, 4-(4-((4-(2,4-dichlorophenyl)piperazin-1-yl)methyl)benzylamino)-2-(2,6-dioxopiperidin-3-yl)isoindoline-1,3-dione]",501 to 750
2,"CC(C)C1CCN(Cc2ccc(CNc3cccc4c3C(=O)N(C3CCC(=O)NC3=O)C4=O)cc2F)CC1 (stereo not drawn) [Cpd 99, 2-(2,6-dioxopiperidin-3-yl)-4-(3-fluoro-4-((4-isopropylpiperidin-1-yl)methyl)benzylamino)isoindoline-1,3-dione]",< 200
3,"O=C1CCC(N2C(=O)c3cccc(NCc4ccc(CN5CCN(c6ccc(C(F)(F)F)nc6)CC5)cc4)c3C2=O)C(=O)N1 (stereo not drawn) [Cpd 10, 2-(2,6-dioxopiperidin-3-yl)-4-(4-((4-(6-(trifluoromethyl)pyridin-3-yl)piperazin-1-yl)methyl)benzylamino)isoindoline-1,3-dione]",200 to 500
4,"CCC1CCN(Cc2ccc(CNc3cccc4c3C(=O)N(C3CCC(=O)NC3=O)C4=O)cc2C)CC1 (stereo not drawn) [Cpd 41, 2-(2,6-dioxopiperidin-3-yl)-4-(4-((4-ethylpiperidin-1-yl)methyl)-3-methylbenzylamino)isoindoline-1,3-dione]",< 200
5,"Cc1cc(CNc2cccc3c2C(=O)N(C2CCC(=O)NC2=O)C3=O)ccc1CN1CC(Oc2ccc(C#N)cc2)C1 (stereo not drawn) [Cpd 83, 4-(1-(4-((2-(2,6-dioxopiperidin-3-yl)-1,3-dioxoisoindolin-4-ylamino)methyl)-2-methylbenzyl)azetidin-3-yloxy)benzonitrile]",< 200
6,"O=C1CCC(N2C(=O)c3cccc(NCc4ccc(CN5CCN(c6ccc(F)cc6F)CC5)cc4F)c3C2=O)C(=O)N1 (stereo not drawn) [Cpd 108, 4-(4-((4-(2,4-difluorophenyl)piperazin-1-yl)methyl)-2-fluorobenzylamino)-2-(2,6-dioxopiperidin-3-yl)isoindoline-1,3-dione]",< 200
7,"Cc1cc(C#N)ccc1N1CCN(Cc2ccc(CNc3cccc4c3C(=O)N(C3CCC(=O)NC3=O)C4=O)cc2)CC1 (stereo not drawn) [Cpd 8, 4-(4-(4-((2-(2,6-dioxopiperidin-3-yl)-1,3-dioxoisoindolin-4-ylamino)methyl)benzyl)piperazin-1-yl)-3-methylbenzonitrile]",200 to 500
8,"CC(C)C1CN(Cc2ccc(CNc3cccc4c3C(=O)N(C3CCC(=O)NC3=O)C4=O)cc2)C1 (stereo not drawn) [Cpd 113, 2-(2,6-dioxopiperidin-3-yl)-4-(4-((3-isopropylazetidin-1-yl)methyl)benzylamino)isoindoline-1,3-dione]",200 to 500
9,"Cc1cc(CNc2cccc3c2C(=O)N(C2CCC(=O)NC2=O)C3=O)ccc1CN1CC2(CCCCC2)C1 (stereo not drawn) [Cpd 75, 4-(4-(2-azaspiro[3.5]nonan-2-ylmethyl)-3-methylbenzylamino)-2-(2,6-dioxopiperidin-3-yl)isoindoline-1,3-dione]",< 200
10,"Cc1cc(CNc2cccc3c2C(=O)N(C2CCC(=O)NC2=O)C3=O)ccc1CN1CCN(C2CC2)CC1 (stereo not drawn) [Cpd 66, 4-(4-((4-cyclopropylpiperazin-1-yl)methyl)-3-methylbenzylamino)-2-(2,6-dioxopiperidin-3-yl)isoindoline-1,3-dione]",< 200
11,"O=C1CCC(N2C(=O)c3cccc(NCc4ccc(CN5CCN(CC6CC6)CC5)cc4F)c3C2=O)C(=O)N1 (stereo not drawn) [Cpd 118, 4-(4-((4-(cyclopropylmethyl)piperazin-1-yl)methyl)-2-fluorobenzylamino)-2-(2,6-dioxopiperidin-3-yl)isoindoline-1,3-dione]",< 200
12,"O=C1CCC(N2C(=O)c3cccc(NCc4ccc(CN5CC(C(F)(F)F)C5)cc4)c3C2=O)C(=O)N1 (stereo not drawn) [Cpd 117, 2-(2,6-dioxopiperidin-3-yl)-4-(4-((3-(trifluoromethyl)azetidin-1-yl)methyl)benzylamino)isoindoline-1,3-dione]",200 to 500
13,"CC1(C)CN(c2ccc(Cl)cc2)CCN1Cc1ccc(CNc2cccc3c2C(=O)N(C2CCC(=O)NC2=O)C3=O)cc1 (stereo not drawn) [Cpd 34, 4-(4-((4-(4-chlorophenyl)-2,2-dimethylpiperazin-1-yl)methyl)benzylamino)-2-(2,6-dioxopiperidin-3-yl)isoindoline-1,3-dione]",751 to 1000
14,"O=C1CCC(N2C(=O)c3cccc(NCc4ccc(CN5CCN(c6ccccc6Cl)CC5)cc4)c3C2=O)C(=O)N1 (stereo not drawn) [Cpd 12, 4-(4-((4-(2-chlorophenyl)piperazin-1-yl)methyl)benzylamino)-2-(2,6-dioxopiperidin-3-yl)isoindoline-1,3-dione]",200 to 500
15,"Cc1cc(CNc2cccc3c2C(=O)N(C2CCC(=O)NC2=O)C3=O)ccc1CN1CCC(C(C)(C)C)CC1 (stereo not drawn) [Cpd 43, 4-(4-((4-tert-butylpiperidin-1-yl)methyl)-3-methylbenzylamino)-2-(2,6-dioxopiperidin-3-yl)isoindoline-1,3-dione]",< 200
16,"C[C@@H]1CN(c2ccc(Cl)cc2)CCN1Cc1ccc(CNc2cccc3c2C(=O)N(C2CCC(=O)NC2=O)C3=O)cc1 (stereo partly drawn) [Cpd 33, 4-(4-(((R)-4-(4-chlorophenyl)-2-methylpiperazin-1-yl)methyl)benzylamino)-2-(2,6-dioxopiperidin-3-yl)isoindoline-1,3-dione]",200 to 500
